{"source": "patent US20140066657A1", "about": "“DOSAGE REGIMEN FOR A S1P RECEPTOR AGONIST” (Novartis AG, priority 2008, published 2014)", "key": {"multiple sclerosis": {"tested_on": "multiple sclerosis", "conditions": "humans; Mehling et al. 2008, Kappos et al. 2006; cited from earlier work"}, "healthy subjects [1]": {"tested_on": "healthy subjects", "test": "Double-blind, placebo-controlled dose titration clinical study; heart rate by continuous telemetry and Holter", "format": "in vivo, human", "method": "A single-center, double-blind, placebo-controlled, dose titration, once-daily, multiple-oral-dose clinical study in healthy subjects was conducted to evaluate the effect of a dosage regimen of FTY720 according to the present invention. A total of 36 subjects were randomly assigned to one of the three groups. Each subject participated in a screening period of maximal 21 days, a baseline period (Day −1), a 9-day dose-administration period, and clinical study completion assessments on Day 10. Subjects were assigned to one of the three groups (dose titration regimen group, placebo Control group, or active control group) and received the once daily dose in a double-blinded manner (Table 1). In the dose titration group, increasing once daily doses of Compound A (FTY720), starting at 0.125 mg o.d. and ending at the maximal therapeutic dose of 1.25 mg o.d. were administered on days 1 to 9 of the study according to the schedule shown in Table 1 below. The placebo control group received placebo through out the duration of the study and the active control group received a once daily dose of 1.25 mg of FTY720 on days 1 to 9. [table] On Day −1 (baseline), subjects will undergo baseline assessments including 24 hour holter monitoring and telemetry assessments. Pharmacodynamic and safety assessments are performed up to 24 hours post last dose. Heart rate is monitored via telemetry on Day −1 through Day 10, 24 hour after the last dosing. Heart rhythm is assessed via 24 hr continuous holter monitoring on Day −1, Day 1, and Day 9. For each dosing for each subject, the drug is administered as closely as practically possible to the time administered on Day −1. Safety assessments includes physical examinations, vital signs and body measurements, 12-lead ECG evaluations, standard clinical laboratory evaluations hematology, blood chemistry, urinalysis, adverse event and serious adverse event monitoring. Systolic and diastolic blood pressure and pulse are measured after the subject has rested quietly in the sitting position for at least 3 minutes. Blood pressure is measured at the same arm on each occasion. Standard 12-lead ECGs are recorded at Screening, baseline, 4 hours post-dose on Day 1 and Day 8, and at Study Completion. The variables recorded are: date and time of ECG, heart rate. PR interval, QT interval (uncorrected), QTcB, QRS duration. The overall interpretation is collected with a Yes/No statement to confirm if any clinically relevant abnormalities are present, which needs to be specified further. Subjects remain on continuous telemetry, starting before breakfast on Day −1 and proceeding throughout the administration period up to Day 10 (24 hour after the last dose). Over this ten day duration of continuous heart rate collection for each subject, one heart rate value is obtained every minute (‘minute unit heart rate’), representing the average heart rate value over that minute. The heart rate database for each subject contains approximately 14,400 data points (10 days×24 hr×60 min). 24-hour continuous Holter-ECG data are captured via a digital Holter monitor (12-lead, on Days −1, 1, 6, and 8), and transferred for interpretation and reporting. Hotter monitoring starts approximately at 7:00 and the time of dose administration is regarded as the time “0 hours'. Holter “cuts” are derived from the dataset at 1 hour intervals starting from Day −1 and continuing for 24 hours or the end of the cleaned Hotter monitoring dataset. Cardiac conduction intervals: arrhythmia monitoring includes the frequency and duration of sinus pauses (>2 sec and >3 sec) and atrio-ventricular blocks. Frequency and duration of atrial and ventricular ectopy and sinus rhythm are also recorded. The daily chronotropic effect is defined as the percent decrease in HRmin (minimum heart rate) between two consecutive days. It is calculated on days 1 to 9."}, "healthy subjects [2]": {"tested_on": "healthy subjects", "conditions": "administration of 1.25 mg; cited from earlier work"}, "[3]": {"conditions": "FTY720 1.25 mg once daily treatment group (active control), oral, healthy subjects"}}}
{"smiles": "CCCCCCCCc1ccc(CCC(N)(CO)CO)cc1.Cl", "note": "[FTY720, 2-amino-2-[2-(4-octylphenyl)ethyl]propane-1,3-diol]", "values": [{"measurement": "efficacy in the treatment of multiple sclerosis", "setting": "multiple sclerosis", "result": "has been demonstrated in humans"}, {"measurement": "additional decrease in heart rate (daily average) from Day 1 to Day 2", "setting": "healthy subjects [1]; [3]", "result": "approximately 3 BPM"}, {"measurement": "decrease in heart rate (daily average) from Day -1 to Day 1", "setting": "healthy subjects [1]; [3]", "result": "approximately 8 BPM"}, {"measurement": "gradual decrease in heart rate per day", "setting": "healthy subjects [1]; FTY720 titration group (0.125/0.25/0.5/1.25 mg o.d.), over the eight day course of the dose titration", "result": "1-2 BPM per day"}, {"measurement": "dip in heart rate on initiation of 1.25 mg compared to the preceding days", "setting": "healthy subjects [1]; FTY720 titration group, initiation of 1.25 mg on Day 8", "result": "does not result in dip in heart rate"}, {"measurement": "daily minimum heart rates during the course of the study", "setting": "healthy subjects [1]; dose titration regimen compared with the FTY720 1.25 mg group", "result": "improved daily minimum heart rates"}, {"measurement": "negative chronotropic effect seen on Day 1 of treatment initiation", "setting": "healthy subjects [1]; dose titration regimen versus 1.25 mg o.d. from Day 1", "result": "attenuates the negative chronotropic effect"}, {"measurement": "decrease in heart rate", "setting": "healthy subjects [2]", "result": "approximately 8 beats/min (BPM)"}]}
